This data set has as its target IRF4. The following applies: ASO.

The values that follow come from the OligoGym collection.

Values joined by “and” are separate entries in the source; they are usually repeats but may differ in a detail not shown here. Equal values may be shown once. After the bases stand the sugars from the 5' end (letter, count) and the backbone: PS all phosphorothioate, else s phosphorothioate and o phosphodiester by linkage. Methylation of C is not given here. e = 2'-O-(2-methoxyethyl) (MOE); k = constrained ethyl (cEt); d = 2'-deoxy (DNA)

For the sequence CAGATTTACACCGTTG (sugars k3 d10 k3, PS), the target mRNA inhibition (MM.1R, 1 µM) was 15%.
For GCACGCAAGGCTCGGA (sugars k3 d10 k3, PS), the target mRNA inhibition (MM.1R, 1 µM) is 7%.
With ACTGTTAAAGCAGCAT (sugars k3 d10 k3, PS), for the setting “SK-MEL-28, 4 µM”, the target mRNA inhibition amounted to 71%.
For the sequence CGCAGGAGCGCGGAGG (sugars k3 d10 k3, PS), the target mRNA inhibition (MM.1R, 1 µM) was -28%.
For “TGCTTGAGGTTTTCCT (sugars k3 d9 k3 e1, PS)”, the target mRNA inhibition (MM.1R, 1 µM) stood at 46%.
Take “GATGTGATAGCTGAGC (sugars k2 d9 e3 k2, PS)”: where the note is “MM.1R, 1 µM”, the target mRNA inhibition was found to be 52%.
For CGGGAGATAAAGAACA (sugars k3 d10 k3, PS), the target mRNA inhibition (SK-MEL-28, 4 µM) turned out to be 31%.
The same measure, in the same setting: the same measure for TCACGAGGTTGCCGAG (sugars k3 d10 k3, PS): 62%; for AGCCCAAAGTTACATC (sugars k3 d10 k3, PS): 42%.
In the case of TCAGAGCTAGAACATG (sugars k3 d10 k3, PS), the target mRNA inhibition (SK-MEL-28, 4 µM) stood at 38%.
Same read-out and setting: under GTTGAAAGAACCAAGC (sugars k3 d10 k3, PS) stands 11%; under TTTTTCCATATGACCC (sugars k3 d10 k3, PS), 75%.
As to GAAGAATTTTAGCATC (sugars k3 d10 k3, PS), the target mRNA inhibition (SK-MEL-28, 4 µM) was determined as 56%.
In the case of CAAAAGGTAGTAGACC (sugars k3 d10 k3, PS), where the note is “MM.1R, 1 µM”, the target mRNA inhibition stood at 11%.
For the sequence CTTCACTCAGCAAGTG (sugars k3 d10 k3, PS), the target mRNA inhibition (SK-MEL-28, 4 µM) stood at 43%.
Consider TGCCGTGTCAGGGTCG (sugars k3 d10 k3, PS), for which, under “SK-MEL-28, 4 µM”, the target mRNA inhibition was found to be 11%.
Consider GCGGATAGATCTGTGG (sugars k3 d10 k3, PS), for which, under “SK-MEL-28, 4 µM”, the target mRNA inhibition amounted to 55%.
Regarding TAGTAAATATCCTGTA (sugars k3 d10 k3, PS), under “SK-MEL-28, 4 µM”, the target mRNA inhibition was determined as 42%.
For CTGAAAGCGAGTCAGA (sugars k3 d10 k3, PS), the target mRNA inhibition (MM.1R, 1 µM) came out at 6%.
Take GAGGACTTCGGGAGAT (sugars k3 d10 k3, PS): where the note is “SK-MEL-28, 4 µM”, the target mRNA inhibition was 23%.
Still for that read-out and setting: under AAAGGAGGTAGTGGCC (sugars k3 d10 k3, PS) stands 21%.
As for TCCAAGCAATTATTCC (sugars k3 d10 k3, PS), the target mRNA inhibition (SK-MEL-28, 4 µM) is 12%.
As for “TGATAGCTGAGCTGAT (sugars k2 d9 e3 k2, PS)”, the target mRNA inhibition (MM.1R, 1 µM) was -2%.
For TCCTTTAGTGTCGCCA (sugars k3 d10 k3, PS), under “SK-MEL-28, 4 µM”, the target mRNA inhibition amounted to 76%.
Regarding AAAACAGTAAGAGGGC (sugars k3 d10 k3, PS), under “SK-MEL-28, 4 µM”, the target mRNA inhibition amounted to 39%.
Still for that read-out and setting: under AGACGAAAACAGCCGC (sugars k3 d10 k3, PS) stands 25%; under CCACAGTTGAACCCAT (sugars k3 d10 k3, PS), 36%; under GGCAACCTGCATTTGC (sugars k3 d10 k3, PS), -13%.
Turning to “GGCACATCAATGTTTT (sugars kkdddddddddkekek, PS)”, the target mRNA inhibition (MM.1R, 1 µM) is 23% and 19%.
In the case of ATGTAGGGATACAGCA (sugars k3 d10 k3, PS), under “SK-MEL-28, 4 µM”, the target mRNA inhibition was found to be 74%.
As to TTCTTATGCATGTTCC (sugars k3 d10 k3, PS), the target mRNA inhibition (SK-MEL-28, 4 µM) was 65% and 80%.
For the sequence GTGACTTGCATCCATG (sugars k3 d10 k3, PS), the target mRNA inhibition (MM.1R, 1 µM) stood at 62%.
On to “TTATATACTGGTTGGT (sugars kkddddddddddkeke, PS)”, for which the target mRNA inhibition (MM.1R, 1 µM) came out at 47%.
Consider GAGGTCTTTGGGATTC (sugars k3 d10 k3, PS), for which the target mRNA inhibition (SK-MEL-28, 4 µM) was found to be 74%.
For the sequence “ACACTTTTAGAGAGGA (sugars kkddddddddddkeke, PS)”, where the note is “MM.1R, 1 µM”, the target mRNA inhibition was found to be 14%.
Take GGACCTGGTCCAGGTT (sugars k4 d8 k4, PS): the target mRNA inhibition (SK-MEL-28, 4 µM) is -28%.
Take “ACCTCAGTTTGTGAAG (sugars kkkdddddddddkeke, PS)”: the target mRNA inhibition (MM.1R, 1 µM) worked out at 8%.
On the same count and under the same terms, the same measure for “AGTGACTTGCATCCAT (sugars kddddddddddkekek, PS)”: 2%.
CTATTAAACAGCACTC (sugars k3 d10 k3, PS): the target mRNA inhibition (SK-MEL-28, 4 µM) amounted to 18%.
On the same count and under the same terms, under TCCTGAGACAAGTGCT (sugars k3 d10 k3, PS) stands 55%.
As to “AGTGTCTAAAGTCCCA (sugars kkdddddddddkdkdk, PS)”, the target mRNA inhibition (MM.1R, 1 µM) was 14% and -5%.
As to GGGTAAGCACTGAGGC (sugars k3 d10 k3, PS), under “SK-MEL-28, 4 µM”, the target mRNA inhibition stood at 61%.
GGCACAGACATACCTA (sugars k3 d10 k3, PS): the target mRNA inhibition (SK-MEL-28, 4 µM) stood at 48%.
In the case of “CTGCTTGAGGTTTTCC (sugars kkdddddddddkdkdk, PS)”, the target mRNA inhibition (MM.1R, 1 µM) came out at 36%.
The same measure, in the same setting: under CATAAAGGACCCCGCC (sugars k3 d10 k3, PS) stands -5%.
Turning to GTGAACATGCCACTCA (sugars k3 d10 k3, PS), the target mRNA inhibition (SK-MEL-28, 4 µM) came out at 62%.
On the same count and under the same terms, under TAGCAGGGCACGCTCT (sugars k3 d10 k3, PS) stands 31%.
The same measure, in the same setting: under GAGGTTCGCTGAATTG (sugars k3 d10 k3, PS) stands 30%.
In the case of “AATGTGTATTACTCTT (sugars k2 d9 e3 k2, PS)”, the target mRNA inhibition (MM.1R, 1 µM) was 15% and 17%.
With TGGGATGCCACCATCC (sugars k3 d10 k3, PS), the target mRNA inhibition (MM.1R, 1 µM) was -2%.
Take GAGAGCCTTCACGCAC (sugars k3 d10 k3, PS): the target mRNA inhibition (SK-MEL-28, 4 µM) was 23%.
